From patent US20250019387A1 (Frontier Medicines Corporation, priority 0001, published 2025)

Target: KRAS G12C and cRAF (Ras-binding domain) interaction (Homo sapiens (Human), UniProt P01116, C118S/C51S/C80L/G12C)
Assay: Inhibition of KRAS G12C and cRAF binding (AlphaScreen)
Conditions: additional exemplary compounds; KRAS G12C and cRAF binding; read-out: RAF1 RBD IC50
Method: Compounds were diluted in 100% DMSO and each compound concentration was spotted at 200 nl/well onto low volume, white 384 well plates. […] Plates were incubated for 19-20 hours. A mixture of RBD and the AlphaScreen streptavidin donor and glutathione acceptor beads diluted in 25 mM Hepes, pH 7.4, 150 mM NaCl, 5 mM MgCl2, 0.01% TritonX-100 and 2% DMSO was then added at 10 ul/well and incubated for 60-90 minutes before the samples were read for emission at 570 nm after excitation of the donor beads at 680 nm. All incubations were performed at room temperature. […] IC50s were determined using nonlinear regression fit of [inhibitor]vs. response (4 parameters). […]

KRAS G12C and cRAF (Ras-binding domain) interaction, sequence (P01116 other isoform, or with tags, fused parts or gaps G12C/C51S/C80L/C118S): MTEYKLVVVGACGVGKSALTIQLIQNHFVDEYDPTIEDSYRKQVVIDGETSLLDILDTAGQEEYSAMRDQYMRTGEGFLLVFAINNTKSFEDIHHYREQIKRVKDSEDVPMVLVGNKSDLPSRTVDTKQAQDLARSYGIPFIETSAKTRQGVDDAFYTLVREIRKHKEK

SMILES	IC50 [nM]
COC/C=C/C(=O)N1CC[C@@H](N(C)c2nc(OCC34CCCN3CCC4)nc3c2CCN(c2cccc4cccc(Cl)c24)C3)C1	100 to 500
CC(C)C/C=C/S(=O)(=O)CCN(C)c1nc(OCC23CCCN2CCC3)nc2c1CCN(c1cccc3cccc(Cl)c13)C2	> 500
C=CC(=O)N1CC(CN(C)c2nc(OCC34CCCN3CCC4)nc3c2CCN(c2cccc4cccc(Cl)c24)C3)C1	100 to 500
C=CC(=O)CCN(C)c1nc(OC[C@@H]2CCCN2C)nc2c1CCN(c1cccc3ccccc13)C2	> 500
C=CC(=O)N1CC(CN(C)c2nc(OC[C@@]34CCCN3C[C@H](F)C4)nc3c2CCN(c2cccc4cccc(Cl)c24)C3)C1	100 to 500
C=CC(=O)CCCN(C)c1nc(OC[C@@H]2CCCN2C)nc2c1CCN(c1cccc3ccccc13)C2	> 500
C=CC(=O)N1C[C@@H](F)[C@@H](N(C)c2nc(OC[C@@]34CCCN3C[C@H](F)C4)nc3c(F)c(-c4cccc5cccc(Cl)c45)ncc23)C1	> 500
C=CC(=O)N1CC[C@@H](N(C)c2nc(OC[C@@]34CCCN3C[C@H](F)C4)nc3c(F)c(-c4cc(OC(F)F)cc5ccccc45)ncc23)C1	> 500
CN(c1nc(OCC23CCCN2CCC3)nc2c(F)c(-c3cccc4cccc(Cl)c34)ncc12)[C@@H]1CCN(C(=O)/C=C/c2nnn(C)n2)C1	> 500
C=CC(=O)N1CC[C@@H](N(C)c2nc(OC[C@@]34CCCN3C[C@H](F)C4)nc3c(F)c(-c4cc(C(F)F)cc5ccccc45)ncc23)C1	> 500
C=CC(=O)N1C[C@@H](F)[C@H](N(C)c2nc(OC[C@@]34CCCN3C[C@H](F)C4)nc3c(F)c(-c4cccc5cccc(Cl)c45)ncc23)C1	> 500
CN(c1nc(OC[C@@]23CCCN2C[C@H](F)C3)nc2c(F)c(-c3cccc4cccc(Cl)c34)ncc12)[C@@H]1CCN(C(=O)/C=C/c2ccncn2)C1	> 500
CN(c1nc(OC[C@@]23CCCN2C[C@H](F)C3)nc2c1CCN(c1cccc3cccc(Cl)c13)C2)[C@@H]1CCN(C(=O)/C=C/c2ccncn2)C1	> 500
Cc1nsc(/C=C/C(=O)N2C[C@@H](F)[C@H](N(C)c3nc(OC[C@@]45CCCN4C[C@H](F)C5)nc4c(F)c(-c5cccc6cccc(Cl)c56)ncc34)C2)n1	> 500
Cc1nccc(/C=C/C(=O)N2C[C@@H](F)[C@H](N(C)c3nc(OC[C@@]45CCCN4C[C@H](F)C5)nc4c(F)c(-c5cccc6cccc(Cl)c56)ncc34)C2)n1	> 500
CN(c1nc(OC[C@@]23CCCN2C[C@H](F)C3)nc2c(F)c(-c3cccc4cccc(Cl)c34)ncc12)[C@@H]1CCN(C(=O)/C=C/c2ncc(F)cn2)C1	> 500
CN(c1nc(OC[C@@]23CCCN2C[C@H](F)C3)nc2c(F)c(-c3cccc4cccc(Cl)c34)ncc12)[C@@H]1CCN(C(=O)/C=C/CN2CCCS2(=O)=O)C1	100 to 500
C=CC(=O)N1C[C@@H](O)[C@@H](Nc2nc(OC[C@@]34CCCN3C[C@H](F)C4)nc3c(F)c(-c4cccc5cccc(Cl)c45)ncc23)C1	> 500
C=CC(=O)N1C[C@H](Nc2nc(OC[C@@]34CCCN3C[C@H](F)C4)nc3c(F)c(-c4cccc5cccc(Cl)c45)ncc23)[C@@H](C)C1	> 500
Cc1nccc(/C=C/C(=O)N2CC3CC(C2)N3c2nc(OC[C@@]34CCCN3C[C@H](F)C4)nc3c(F)c(-c4cccc5cccc(Cl)c45)ncc23)n1	> 500

SMILES	IC50 [nM]
Cc1nccc(/C=C/C(=O)N2C3CC2CN(c2nc(OC[C@@]45CCCN4C[C@H](F)C5)nc4c(F)c(-c5cccc6cccc(Cl)c56)ncc24)C3)n1	> 500
CN(C)C/C=C/C(=O)N1CCC(N(C)c2nc(OC[C@@H]3CCCN3C)nc3c2CCN(c2cccc4cccc(Cl)c24)C3)C1 (stereo partly shown)	100 to 500
CC(C)c1noc(/C=C/C(=O)N2CC3CC(C2)N3c2nc(OC[C@@]34CCCN3C[C@H](F)C4)nc3c(F)c(-c4cccc5cccc(Cl)c45)ncc23)n1	> 500
CC(C)c1noc(/C=C/C(=O)N2C3CC2CN(c2nc(OC[C@@]45CCCN4C[C@H](F)C5)nc4c(F)c(-c5cccc6cccc(Cl)c56)ncc24)C3)n1	> 500
Cc1nccc(/C=C/C(=O)N2C[C@H]3C[C@@H]2CN3c2nc(OC[C@@]34CCCN3C[C@H](F)C4)nc3c(F)c(-c4cccc5cccc(Cl)c45)ncc23)n1	> 500
CC(C)c1noc(/C=C/C(=O)N2C[C@H]3C[C@@H]2CN3c2nc(OC[C@@]34CCCN3C[C@H](F)C4)nc3c(F)c(-c4cccc5cccc(Cl)c45)ncc23)n1	> 500
Cc1nccc(/C=C/C(=O)N2CCC[C@H](Nc3nc(OC[C@@]45CCCN4C[C@H](F)C5)nc4c(F)c(-c5cccc6cccc(Cl)c56)ncc34)C2)n1	> 500
CN(CC1(C)CN(C#N)C1)c1nc(OC[C@@H]2CCCN2C)nc2c1CCN(c1cccc3cccc(Cl)c13)C2	> 500
Cc1nccc(/C=C/C(=O)N2CC3(C2)CN(c2nc(OC[C@@]45CCCN4C[C@H](F)C5)nc4c(F)c(-c5cccc6cccc(Cl)c56)ncc24)C3)n1	> 500
Cc1nccc(/C=C/C(=O)N2CC3(CCN(c4nc(OC[C@@]56CCCN5C[C@H](F)C6)nc5c(F)c(-c6cccc7cccc(Cl)c67)ncc45)C3)C2)n1	> 500
C=CC(=O)N1CC[C@@H](N(C)c2nc(OC[C@@]34CCCN3C[C@H](F)C4)nc3c(F)c(-c4cccc5c(Cl)cc(F)cc45)ncc23)C1	> 500
Cc1nccc(/C=C/C(=O)N2CCC(N(C)c3nc(OC[C@@]45CCCN4C[C@H](F)C5)nc4c(F)c(-c5cccc6cccc(Cl)c56)ncc34)CC2)n1	> 500
Cc1nccc(/C=C/C(=O)N2CCC3(C2)CN(c2nc(OC[C@@]45CCCN4C[C@H](F)C5)nc4c(F)c(-c5cccc6cccc(Cl)c56)ncc24)C3)n1	> 500
Cc1nccc(/C=C/C(=O)N2CCC23CN(c2nc(OC[C@@]45CCCN4C[C@H](F)C5)nc4c(F)c(-c5cccc6cccc(Cl)c56)ncc24)C3)n1	> 500
C=CC(=O)N1CC[C@@H](N(CC(F)(F)F)c2nc(OC[C@@]34CCCN3C[C@H](F)C4)nc3c(F)c(-c4cccc5cccc(Cl)c45)ncc23)C1	> 500
C=CS(=O)(=O)CCN(C)c1nc(OC[C@@H]2CCCN2C)nc2c(F)c(-c3cccc4cccc(Cl)c34)ncc12	100 to 500
Cc1nccc(/C=C/C(=O)N2CCCN(c3nc(OC[C@@]45CCCN4C[C@H](F)C5)nc4c(F)c(-c5cccc6cccc(Cl)c56)ncc34)CC2)n1	> 500
CN1CCC1/C=C/C(=O)N1CCCN(c2nc(OC[C@@]34CCCN3C[C@H](F)C4)nc3c(F)c(-c4cccc5cccc(Cl)c45)ncc23)CC1 (stereo partly shown)	> 500
O=C(/C=C/CN1CCOCC1)N1CCCN(c2nc(OC[C@@]34CCCN3C[C@H](F)C4)nc3c(F)c(-c4cccc5cccc(Cl)c45)ncc23)CC1	> 500
C=CC(=O)N1C[C@@H](C)[C@@H](N(C)c2nc(OC[C@@]34CCCN3C[C@H](F)C4)nc3c(F)c(-c4cccc5cccc(Cl)c45)ncc23)C1	> 500

SMILES	IC50 [nM]
C=CS(=O)(=O)[C@H]1C[C@H](N(C)c2nc(OCC34CCCN3CCC4)nc3c2CCN(c2cccc4cccc(Cl)c24)C3)C1	100 to 500
C=CC(=O)N1CC[C@@H](N(C)c2nc(OC[C@@]34CCCN3C[C@H](F)C4)nc3c(F)c(-c4cccc5c(C)c(F)ccc45)ncc23)C1	> 500
Cc1nccc(/C=C/C(=O)N2C[C@@H]3CN(c4nc(OC[C@@]56CCCN5C[C@H](F)C6)nc5c(F)c(-c6cccc7cccc(Cl)c67)ncc45)C[C@@H]3C2)n1	> 500
O=C(/C=C/CN1CCOCC1)N1CC2(CCN(c3nc(OC[C@@]45CCCN4C[C@H](F)C5)nc4c(F)c(-c5cccc6cccc(Cl)c56)ncc34)C2)C1	> 500
O=C(/C=C/CN1CCOCC1)N1CC2(C1)CN(c1nc(OC[C@@]34CCCN3C[C@H](F)C4)nc3c(F)c(-c4cccc5cccc(Cl)c45)ncc13)C2	> 500
CN(CCC1CN(C#N)C1)c1nc(OCC23CCCN2CCC3)nc2c1CCN(c1cccc3cccc(Cl)c13)C2	100 to 500
O=C(/C=C/CN1CCOCC1)N1CC2CC(C1)N2c1nc(OC[C@@]23CCCN2C[C@H](F)C3)nc2c(F)c(-c3cccc4cccc(Cl)c34)ncc12	> 500
C=CC(=O)N1CC[C@@H](N(C)c2nc(OC[C@@H]3CCCN3C)nc3c(F)c(-c4cccc5cccc(Cl)c45)ncc23)C1	> 500
O=C(/C=C/CN1CCOCC1)N1C2CC1CN(c1nc(OC[C@@]34CCCN3C[C@H](F)C4)nc3c(F)c(-c4cccc5cccc(Cl)c45)ncc13)C2	> 500
Cc1ncc(/C=C/C(=O)NCCN(C)c2nc(OCC34CCCN3CCC4)nc3c2CCN(c2cccc4cccc(Cl)c24)C3)o1	100 to 500
O=C(/C=C/CN1CCOCC1)N1C[C@@H]2C[C@H]1CN2c1nc(OC[C@@]23CCCN2C[C@H](F)C3)nc2c(F)c(-c3cccc4cccc(Cl)c34)ncc12	> 500
CN(C)C/C=C/S(=O)(=O)CCN(C)c1nc(OCC23CCCN2CCC3)nc2c1CCN(c1cccc3cccc(Cl)c13)C2	< 10
O=C(/C=C/CN1CCOCC1)N1C[C@H]2C[C@@H]1CN2c1nc(OC[C@@]23CCCN2C[C@H](F)C3)nc2c(F)c(-c3cccc4cccc(Cl)c34)ncc12	> 500
CN(CCS(=O)(=O)/C=C/CN1CC(F)C1)c1nc(OCC23CCCN2CCC3)nc2c1CCN(c1cccc3cccc(Cl)c13)C2	100 to 500
O=C(/C=C/CN1CCOCC1)N1C[C@H]2CC[C@@H](C1)N2c1nc(OC[C@@]23CCCN2C[C@H](F)C3)nc2c(F)c(-c3cccc4cccc(Cl)c34)ncc12	> 500
O=C(/C=C/CN1CCOCC1)N1[C@@H]2CC[C@H]1CN(c1nc(OC[C@@]34CCCN3C[C@H](F)C4)nc3c(F)c(-c4cccc5cccc(Cl)c45)ncc13)C2	> 500
CN(CC1CN(C#N)C1)c1nc(OC[C@@H]2CCCN2C)nc2c(F)c(-c3cccc4cccc(Cl)c34)ncc12	> 500
Cc1nccc(/C=C/C(=O)N2C[C@H]3CC[C@@H](C2)N3c2nc(OC[C@@]34CCCN3C[C@H](F)C4)nc3c(F)c(-c4cccc5cccc(Cl)c45)ncc23)n1	> 500
